For 3 molecules, mass density and excess molar enthalpy results are on record in the NIST ThermoML archive (doi:10.1021/je049953t).

The conditions of data set [1]: 298.15 K; 101.33 kPa; Liquid.
The nature of data set [2]: excess molar enthalpy (molar enthalpy of mixing); xn = mol fraction of the nth substance listed. The following applies: 101.33 kPa, Liquid, Flow calorimetry.

Numbers after ± are expanded uncertainties.

The term mass density denotes the mass of a sample divided by its volume. Take `CCCC(C)C` [2-methylpentane]: the mass density in data set [1] is given as 648.45 ± 0.44 kg/m3.
Take `CCCC(C)C` [2-methylpentane] + CN(C)C=O: the excess molar enthalpy is 0.0551 ± 0.00148 kcal/mol in data set [2] (298.15 K, x1 = 0.03); 0.105 ± 0.00239 kcal/mol in data set [2] (298.15 K, x1 = 0.0611); 0.105 ± 0.00239 kcal/mol in data set [2] (298.15 K, x1 = 0.0613); 0.154 ± 0.00335 kcal/mol in data set [2] (298.15 K, x1 = 0.094); 0.112 ± 0.00239 kcal/mol in data set [2] (298.15 K, x1 = 0.9462); 0.0551 ± 0.00148 kcal/mol in data set [2] (313.15 K, x1 = 0.03). In addition, the excess molar enthalpy in data set [2] (313.15 K, x1 = 0.0611) turned out to be 0.107 ± 0.00239 kcal/mol; in data set [2] (313.15 K, x1 = 0.0613), 0.108 ± 0.00239 kcal/mol; in data set [2] (313.15 K, x1 = 0.094), 0.157 ± 0.00359 kcal/mol; in data set [2] (313.15 K, x1 = 0.1281) it was 0.202 ± 0.0043 kcal/mol; in data set [2] (313.15 K, x1 = 0.9178), 0.174 ± 0.00382 kcal/mol; in data set [2] (313.15 K, x1 = 0.9462), 0.113 ± 0.00263 kcal/mol. Further, in data set [2] (313.15 K, x1 = 0.9469), the excess molar enthalpy amounted to 0.11 ± 0.00263 kcal/mol.
Take `CN(C)C=O` [dimethylformamide]: the mass density in data set [1] came to 943.81 ± 0.15 kg/m3.
